Patent publication US9133134B2, “Inhibitors of bruton's tyrosine kinase” (Pharmacyclics, Inc., priority 2012, dated 2015)

Target: human BTK (Homo sapiens (Human), UniProt Q06187)
Assay: Btk enzymatic kinase assay (electrophoretic mobility shift assay)
Assay type: biochemical
Details: recombinant full-length human BTK 1 nM, ATP 16 μM, peptide substrate 1 μM, one hour incubation
Experimental: Kinase activity is measured in vitro using electrophoretic mobility shift assay. The kinase reactions are assembled in a total volume of 25 μL in 384 well plates. […] The reaction is incubated for one hour and is quenched by the addition of 45 μL of termination buffer (100 mM HEPES, pH7.5, 0.01% Triton X-100, 30 mM EDTA). The terminated reactions are analyzed using 12 channel LabChip® 3000 microfluidic detection instrument (Caliper Life Sciences). […] Change in the relative fluorescence intensity of the substrate and product peaks is the parameter measured, reflecting enzyme activity. In the presence of an inhibitor, the ratio between product and substrate is altered: the signal of the product decreases, while the signal of the substrate increases.
Activity in each sample is determined as the product to sum ratio (PSR): P/(S+P), where P is the peak height of the product peptide and S is the peak height of the substrate peptide. For each compound, enzyme activity is measured at various concentrations (12 concentrations of compound spaced by 3× dilution intervals). […] Percent inhibition (Pinh) is determined using following equation: […]
The IC50 values of inhibitors are determined by 4 parameter sigmoidal dose-response model fitting of the inhibition curves (Pinh versus inhibitor concentration) using XLfit 4 software.

Chain of human BTK (Q06187 whole entry): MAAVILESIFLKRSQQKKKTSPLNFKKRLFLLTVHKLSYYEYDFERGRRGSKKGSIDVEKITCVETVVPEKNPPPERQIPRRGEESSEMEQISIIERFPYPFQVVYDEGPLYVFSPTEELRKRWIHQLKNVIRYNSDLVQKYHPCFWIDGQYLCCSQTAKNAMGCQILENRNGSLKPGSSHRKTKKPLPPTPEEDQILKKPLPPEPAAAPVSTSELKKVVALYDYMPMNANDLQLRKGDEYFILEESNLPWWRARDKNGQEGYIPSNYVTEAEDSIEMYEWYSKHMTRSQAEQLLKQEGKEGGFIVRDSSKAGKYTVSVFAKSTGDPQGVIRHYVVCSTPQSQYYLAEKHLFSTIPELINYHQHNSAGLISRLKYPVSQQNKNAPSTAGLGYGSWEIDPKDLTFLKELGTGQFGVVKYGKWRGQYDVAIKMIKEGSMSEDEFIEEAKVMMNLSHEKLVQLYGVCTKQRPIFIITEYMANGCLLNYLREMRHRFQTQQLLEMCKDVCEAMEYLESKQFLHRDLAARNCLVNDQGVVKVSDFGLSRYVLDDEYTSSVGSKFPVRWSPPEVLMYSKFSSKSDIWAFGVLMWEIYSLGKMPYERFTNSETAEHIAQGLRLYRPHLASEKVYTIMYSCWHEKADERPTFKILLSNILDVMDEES

COCCOc1ccc(Nc2ncc(F)c(Nc3cccc(NC(=O)C(O)CO)c3)n2)cc1 (stereo not shown) [Compound 4, N-(3-(5-fluoro-2-(4-(2-methoxyethoxy)phenylamino)pyrimidin-4-ylamino)phenyl)-2,3-dihydroxypropanamide]
IC50: < 500 nM
